From US20130216630A1, “BIOMATERIALS FOR USE IN METHODS OF BONE REPLACEMENT THERAPY” (UNIVERSITY OF WITWATERSRAND, JOHANNESBURG, priority 2010, published 2013)
“Also recorded” adds a separate entry of the source.

Experiments:
[1] = test system: rectus abdominis muscle of Papio ursinus; experiment: Heterotopic implantation of macroporous 7% HA/CC constructs in rectus abdominis muscle, histological evaluation of bone induction; format: in vivo; details: coral-derived 7% HA/CC macroporous constructs pre-loaded with 0.24 mg zoledronate; intramuscular (rectus abdominis) implantation in adult Papio ursinus; harvested 90 days after implantation
Method: Topographical modification of the implanted constructs may be of the utmost importance for the differentiation of myoblastic/myoendothelial and/or perivascular/endothelial stem cells into osteoblastic-like cells. In order to study the effect of the osteoclastic activity on cell differentiation and the induction of bone formation, samples of solid porous construct compositions, typically macroporous hydroxyapatites were pre-loaded with 0.24 mg of the osteoclastic inhibitor biphosphonate zoledronate (Zometa®). Samples with and without zoledronate were then implanted in the rectus abdominis muscle of Papio ursinus.
A biomaterial to act, in use, as a platform for bone growth induction and/or bone growth was prepared. Said solid porous composition in the form of macroporous hydroxyapatite replicas of the calcium carbonate exoskeletal microstructure of the coral genus Goniopora was prepared by hydrothermal chemical exchange with phosphate [(5) Ripamonti, U. J Bone Joint Surg Am 1991; 73:692-703; (6) Ripamonti U, Richter P W, Nilen R W N, Renton L., J Cell Mol Med 2008; 12:1029-48., (7) Shors EC, Orthop Clin North Am 1999:30:599-613; (8) Ripamonti U, van den Heever B, van Wyk J., Matrix 1993;13:491-502; (9) Ripamonti, R. M. Klar, L. F. Renton, C Ferretti., Biomaterials, 31, 6400-6410 (2010). The entirety of which are incorporated by reference herein]. […]

[2] = test system: osteogenic protein-1 (OP-1) gene expression; experiment: qTR-PCR analyses of harvested biomaterial constructs; format: in vivo; details: harvested constructs pre-treated with 0.24 mg zoledronate; Papio ursinus rectus abdominis
From the text: It is important to note that in specimens with bone formation by induction there is always expression of the OP-1 gene, i.e. there is a direct correlation between the induction of bone and the expression of the OP-1 gene.

O=P(O)(O)C(O)(Cn1ccnc1)P(=O)(O)O [zoledronate]
induction of bone formation / differentiation of bone within macroporous spaces (histology) [1]: lack of bone induction and/or bone growth; also recorded: either did not induce the differentiation of bone at all, or the induction was considerably inhibited; also recorded: In two specimens, the spontaneous induction of bone formation was altogether absent; also recorded: minor amounts of bone had formed by induction at the periphery; also recorded: very limited bone formation
osteogenic protein-1 (OP-1) gene expression [2]: dramatic reduction
